Earlier results in US8278351B2, “Natural marine source phospholipids comprising polyunsaturated fatty acids and their applications” (priority 2001, dated 2012).

How the values were obtained:
depression = conditions: 12 grams daily; placebo 0.6+/−10
[1] = high-dose inositol
panic disorder = conditions: four weeks
[2] = tested on: Obsessive Compulsive Disorder; conditions: week six, compared to placebo period
Alzheimer's Disease [3] = tested on: Alzheimer's Disease
Alzheimer's Disease [4] = conditions: 300 mg. per day for six weeks, 35 patients
cognitive decline = conditions: 300 mg. per day for six months, versus placebo
memory impairment = conditions: 300 mg. daily, three months
[5] = tested on: mitochondrial membrane potentials; conditions: experimental group, peripheral blood
mitochondrial DNA = conditions: treated group versus control; brain and cochlea
cancer cells = conditions: in vitro
[6] = tested on: breast, ovarian, and lung cancer cells, mesothelioma cells

Question: For `O[C@H]1[C@H](O)[C@@H](O)[C@H](O)[C@@H](O)[C@H]1O` [inositol], which “improvement in depression as ranked by the Hamilton Depression Rating Scale” value (depression) is on record?
Answer: 33.4+/−6

Question: And the “increase of CSF levels of inositol” value [1]?
Answer: ≤ 70%

Question: And the “frequency and severity of panic attacks and severity of agoraphobia” value (panic disorder; versus placebo)?
Answer: declined significantly more after inositol than after placebo

Question: What about the “panic attacks after treatment” value (panic disorder; decrease from 10 attacks per week, placebo 10 to 6) of the same compound?
Answer: 3 per week

Question: And the “improvement in OCD” value [2]?
Answer: significant improvement

Question: What about the “CAMCOG subscales language and orientation” value (Alzheimer's Disease [3]; only two of the eight subscales) of the same compound?
Answer: significant improvement

Question: And the “total CAMCOG score after inositol” value (Alzheimer's Disease [3]; six grams inositol daily, four weeks)?
Answer: 40.09+/−24.54

Question: And the “total CAMCOG score, baseline” value (Alzheimer's Disease [3]; six grams inositol daily, baseline)?
Answer: 31.36+/−20.90

Question: What does the source list for Phosphatidylserine [PS]?
Answer: improvement in Alzheimer's patients (Alzheimer's Disease [4]): significant improvement; memory and learning (cognitive decline): significantly improved; mental gain (memory impairment): 12 years

Question: With Polyunsaturated phosphatidylcholine as the compound, how does the “preservation of hearing at all frequencies (3, 6, 9, 12 and 18 kHz)” value (age-related hearing loss; 300 mg/kg/day oral diet, four and six months of treatment) read?
Answer: statistically significant preservation of hearing

Question: And the “overall effect on decline in hearing” value (age-related hearing loss; 300 mg/kg/day, p<0.005 versus control)?
Answer: statistically significant protective effect

Question: What about the “mean fluorescence intensity (MFI), beginning of the study” value ([5]; beginning of the study) of the same compound?
Answer: 3165

Question: What about the “mean fluorescence intensity (MFI), end of the study” value ([5]; end of the study (six months)) of the same compound?
Answer: 2990

Question: And the “mitochondrial DNA damage” value (mitochondrial DNA)?
Answer: less mitochondrial DNA damage

Question: With Phosphatidylcholine as the compound, how does the “cytotoxicity to cancer cells” value (cancer cells) read?
Answer: selectively cytotoxic

Question: What about the “dosage tolerated by normal cells relative to leukemic cells” value (HL60 leukemic cells; 24 hours incubation) of the same compound?
Answer: 4 times

Question: And the “inhibition of HL60 leukemic cells” value (HL60 leukemic cells; versus normal human marrow cells)?
Answer: inhibit HL60 leukemic cells at a dosage that has no effect on normal human marrow cells

Question: What about the “difference in sensitivity between normal and tumor cells” value [6] of the same compound?
Answer: ≤ 5 fold
